Test results published in patent publication US20230074545A1, “TREATMENT OF CANCER WITH CDK12/13 INHIBITORS” (Kinnate Biopharma Inc., priority 2019, published 2023).

What was measured:
Experiment in all cases: Radiometric kinase panel
Type in all cases: biochemical
[1] = target: T1, AKT2 (Homo sapiens, UniProt P31751)
T1 construct: either as full-length or enzymatically active fragments; purchased ProQinase GmbH (Reaction Biology); host or cells: Sf9 insect cells or E. coli (not specified per kinase)
Outline: (§1)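 Activity was measured radiometrically from [gamma-33P]-ATP incorporation into substrate. The kinases were recombinant human GST- or His-tagged proteins, full-length or active fragments, expressed in Sf9 or E. coli. Compound in 10% DMSO was added before the enzyme/substrate mix, which started the reaction.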

[2] = target: T2, ARK5 (Homo sapiens, UniProt O60285)
T2 construct: either as full-length or enzymatically active fragments; purchased ProQinase GmbH (Reaction Biology); host or cells: Sf9 insect cells or E. coli (not specified per kinase)
Outline: as §1

[3] = target: T3, ASK1 (Homo sapiens, UniProt Q99683)
T3 construct: either as full-length or enzymatically active fragments; purchased ProQinase GmbH (Reaction Biology)
Outline: as §1

[4] = target: T4, AuroraB (Homo sapiens, UniProt Q96GD4)
T4 construct: purchased ProQinase GmbH (Reaction Biology); host or cells: Sf9 insect cells or E. coli (not specified per kinase)
Outline: as §1

[5] = target: T5, BRSK1 (Homo sapiens, UniProt Q8TDC3)
T5 construct: either as full-length or enzymatically active fragments; purchased ProQinase GmbH (Reaction Biology)
Outline: as §1

[6] = target: T6, CDK13/CycK (Homo sapiens, UniProt Q14004)
T6 construct: either as full-length or enzymatically active fragments; purchased ProQinase GmbH (Reaction Biology)
Outline: as §1

[7] = target: T7, CDK20/CycT1 (Homo sapiens, UniProt Q8IZL9)
T7 construct: either as full-length or enzymatically active fragments; purchased ProQinase GmbH (Reaction Biology)
Outline: as §1

[8] = target: T8, CDK5/p35NCK (Homo sapiens, UniProt Q00535)
T8 construct: either as full-length or enzymatically active fragments; purchased ProQinase GmbH (Reaction Biology)
Outline: as §1

[9] = target: T9, CDK6/CycD3 (Homo sapiens, UniProt Q00534)
T9 construct: either as full-length or enzymatically active fragments; purchased ProQinase GmbH (Reaction Biology); host or cells: Sf9 insect cells or E. coli
Outline: as §1

[10] = target: T10, CHK2 (Homo sapiens, UniProt O96017)
T10 construct: either as full-length or enzymatically active fragments; purchased ProQinase GmbH (Reaction Biology)
Outline: as §1

[11] = target: T11, CLK2 (Homo sapiens, UniProt P49760)
T11 construct: purchased ProQinase GmbH (Reaction Biology)
Outline: as §1

[12] = target: T12, EGFR (Homo sapiens, UniProt P00533)
T12 construct: either as full-length or enzymatically active fragments; purchased ProQinase GmbH (Reaction Biology)
Outline: as §1

[13] = target: T13, GRK7 (Homo sapiens, UniProt Q8WTQ7)
T13 construct: either as full-length or enzymatically active fragments; purchased ProQinase GmbH (Reaction Biology)
Outline: as §1

[14] = target: T14, ITK (Homo sapiens, UniProt Q08881)
T14 construct: purchased ProQinase GmbH (Reaction Biology); host or cells: Sf9 insect cells or E. coli (not specified per kinase)
Outline: as §1

[15] = target: T15, JAK2 (Homo sapiens, UniProt O60674)
T15 construct: either as full-length or enzymatically active fragments; purchased ProQinase GmbH (Reaction Biology)
Outline: as §1

[16] = target: T16, LIMK2 (Homo sapiens, UniProt P53671)
T16 construct: either as full-length or enzymatically active fragments; purchased ProQinase GmbH (Reaction Biology)
Outline: as §1

[17] = target: T17, LTK (Homo sapiens, UniProt P29376)
T17 construct: purchased ProQinase GmbH (Reaction Biology); host or cells: Sf9 insect cells or E. coli (not specified per kinase)
Outline: as §1

[18] = target: T18, MAPKAPK3 (Homo sapiens, UniProt Q16644)
T18 construct: either as full-length or enzymatically active fragments; purchased ProQinase GmbH (Reaction Biology)
Outline: as §1

[19] = target: T19, MARK2 (Homo sapiens, UniProt Q7KZI7)
T19 construct: either as full-length or enzymatically active fragments; purchased ProQinase GmbH (Reaction Biology)
Outline: as §1

[20] = target: T20, MATK (Homo sapiens, UniProt P42679)
T20 construct: purchased ProQinase GmbH (Reaction Biology)
Outline: as §1

[21] = target: T21, MTOR (Homo sapiens, UniProt P42345)
T21 construct: purchased ProQinase GmbH (Reaction Biology); host or cells: Sf9 insect cells or E. coli (not specified per kinase)
Outline: as §1

[22] = target: T22, PAK7 (Homo sapiens, UniProt Q9P286)
T22 construct: either as full-length or enzymatically active fragments; purchased ProQinase GmbH (Reaction Biology); host or cells: Sf9 insect cells or E. coli
Outline: as §1

[23] = target: T23, PHKG1 (Homo sapiens, UniProt Q16816)
T23 construct: either as full-length or enzymatically active fragments; purchased ProQinase GmbH (Reaction Biology)
Outline: as §1

[24] = target: T24, PKCepsilon (Homo sapiens, UniProt Q02156)
T24 construct: either as full-length or enzymatically active fragments; purchased ProQinase GmbH (Reaction Biology); host or cells: Sf9 insect cells or E. coli
Outline: as §1

[25] = target: T25, PKCzeta (Homo sapiens, UniProt Q05513)
T25 construct: either as full-length or enzymatically active fragments; purchased ProQinase GmbH (Reaction Biology)
Outline: as §1

[26] = target: T26, SGK3 (Homo sapiens, UniProt Q96BR1)
T26 construct: either as full-length or enzymatically active fragments; purchased ProQinase GmbH (Reaction Biology)
Outline: as §1

[27] = target: T27, SNK (Homo sapiens, UniProt Q9NYY3)
T27 construct: either as full-length or enzymatically active fragments; purchased ProQinase GmbH (Reaction Biology); host or cells: Sf9 insect cells or E. coli (not specified per kinase)
Outline: as §1

[28] = target: T28, STK39 (Homo sapiens, UniProt Q9UEW8)
T28 construct: either as full-length or enzymatically active fragments; purchased ProQinase GmbH (Reaction Biology)
Outline: as §1

[29] = target: T29, TAOK2 (Homo sapiens, UniProt Q9UL54)
T29 construct: either as full-length or enzymatically active fragments; purchased ProQinase GmbH (Reaction Biology)
Outline: as §1

[30] = target: T30, TAOK3 (Homo sapiens, UniProt Q9H2K8)
T30 construct: either as full-length or enzymatically active fragments; purchased ProQinase GmbH (Reaction Biology)
Outline: as §1

[31] = target: T31, VRK1 (Homo sapiens, UniProt Q99986)
T31 construct: either as full-length or enzymatically active fragments; purchased ProQinase GmbH (Reaction Biology)
Outline: as §1

T2 sequence (O60285 whole entry, the tested form may be a part): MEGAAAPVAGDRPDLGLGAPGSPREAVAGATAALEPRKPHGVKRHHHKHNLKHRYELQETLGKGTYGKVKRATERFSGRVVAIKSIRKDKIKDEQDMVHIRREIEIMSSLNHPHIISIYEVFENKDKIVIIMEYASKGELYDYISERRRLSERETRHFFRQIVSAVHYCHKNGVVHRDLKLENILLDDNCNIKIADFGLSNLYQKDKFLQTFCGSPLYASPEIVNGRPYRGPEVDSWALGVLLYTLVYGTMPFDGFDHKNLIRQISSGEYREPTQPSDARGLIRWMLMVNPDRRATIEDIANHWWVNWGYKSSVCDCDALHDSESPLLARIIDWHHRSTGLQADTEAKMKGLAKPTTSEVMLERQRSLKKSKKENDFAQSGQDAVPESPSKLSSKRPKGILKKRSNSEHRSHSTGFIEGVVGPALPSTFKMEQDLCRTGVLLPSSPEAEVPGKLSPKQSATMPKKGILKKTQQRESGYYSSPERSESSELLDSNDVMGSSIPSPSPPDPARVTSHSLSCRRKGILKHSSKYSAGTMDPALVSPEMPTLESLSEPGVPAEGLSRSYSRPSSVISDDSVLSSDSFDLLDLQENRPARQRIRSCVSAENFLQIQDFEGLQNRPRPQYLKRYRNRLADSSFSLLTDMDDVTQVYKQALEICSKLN
T29 sequence (Q9UL54 whole entry, the tested form may be a part): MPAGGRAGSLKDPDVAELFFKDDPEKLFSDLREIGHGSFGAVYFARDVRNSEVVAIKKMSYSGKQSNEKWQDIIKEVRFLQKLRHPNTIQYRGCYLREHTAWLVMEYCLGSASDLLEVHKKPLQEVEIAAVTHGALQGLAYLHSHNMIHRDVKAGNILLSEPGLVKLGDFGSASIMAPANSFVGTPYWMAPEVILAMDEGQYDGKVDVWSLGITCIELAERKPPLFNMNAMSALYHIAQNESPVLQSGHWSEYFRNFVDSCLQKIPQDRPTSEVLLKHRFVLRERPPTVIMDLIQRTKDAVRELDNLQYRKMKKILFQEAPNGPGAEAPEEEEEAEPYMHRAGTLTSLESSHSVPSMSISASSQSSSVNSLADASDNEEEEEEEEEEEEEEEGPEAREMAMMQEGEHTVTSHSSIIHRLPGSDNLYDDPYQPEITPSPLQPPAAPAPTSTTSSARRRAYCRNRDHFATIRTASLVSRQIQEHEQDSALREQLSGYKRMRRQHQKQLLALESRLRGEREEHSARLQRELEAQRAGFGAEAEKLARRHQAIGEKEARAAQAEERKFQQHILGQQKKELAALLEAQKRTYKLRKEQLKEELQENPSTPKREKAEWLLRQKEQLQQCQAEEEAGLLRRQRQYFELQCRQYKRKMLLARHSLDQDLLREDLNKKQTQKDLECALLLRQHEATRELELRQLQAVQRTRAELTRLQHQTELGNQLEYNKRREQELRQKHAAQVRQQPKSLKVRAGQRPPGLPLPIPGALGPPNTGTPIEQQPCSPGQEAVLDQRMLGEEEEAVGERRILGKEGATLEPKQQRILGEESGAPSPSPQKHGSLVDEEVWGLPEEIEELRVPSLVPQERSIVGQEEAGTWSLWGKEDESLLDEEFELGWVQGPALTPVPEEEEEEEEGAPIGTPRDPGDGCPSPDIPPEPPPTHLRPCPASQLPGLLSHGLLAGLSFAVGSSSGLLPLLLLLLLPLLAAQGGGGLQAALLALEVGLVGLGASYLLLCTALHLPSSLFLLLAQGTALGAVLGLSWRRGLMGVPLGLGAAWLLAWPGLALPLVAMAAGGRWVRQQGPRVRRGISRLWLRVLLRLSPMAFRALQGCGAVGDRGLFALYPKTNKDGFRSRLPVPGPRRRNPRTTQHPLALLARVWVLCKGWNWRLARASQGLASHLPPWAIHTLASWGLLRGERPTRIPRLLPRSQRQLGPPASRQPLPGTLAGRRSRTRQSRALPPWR
T30 sequence (Q9H2K8 whole entry, the tested form may be a part): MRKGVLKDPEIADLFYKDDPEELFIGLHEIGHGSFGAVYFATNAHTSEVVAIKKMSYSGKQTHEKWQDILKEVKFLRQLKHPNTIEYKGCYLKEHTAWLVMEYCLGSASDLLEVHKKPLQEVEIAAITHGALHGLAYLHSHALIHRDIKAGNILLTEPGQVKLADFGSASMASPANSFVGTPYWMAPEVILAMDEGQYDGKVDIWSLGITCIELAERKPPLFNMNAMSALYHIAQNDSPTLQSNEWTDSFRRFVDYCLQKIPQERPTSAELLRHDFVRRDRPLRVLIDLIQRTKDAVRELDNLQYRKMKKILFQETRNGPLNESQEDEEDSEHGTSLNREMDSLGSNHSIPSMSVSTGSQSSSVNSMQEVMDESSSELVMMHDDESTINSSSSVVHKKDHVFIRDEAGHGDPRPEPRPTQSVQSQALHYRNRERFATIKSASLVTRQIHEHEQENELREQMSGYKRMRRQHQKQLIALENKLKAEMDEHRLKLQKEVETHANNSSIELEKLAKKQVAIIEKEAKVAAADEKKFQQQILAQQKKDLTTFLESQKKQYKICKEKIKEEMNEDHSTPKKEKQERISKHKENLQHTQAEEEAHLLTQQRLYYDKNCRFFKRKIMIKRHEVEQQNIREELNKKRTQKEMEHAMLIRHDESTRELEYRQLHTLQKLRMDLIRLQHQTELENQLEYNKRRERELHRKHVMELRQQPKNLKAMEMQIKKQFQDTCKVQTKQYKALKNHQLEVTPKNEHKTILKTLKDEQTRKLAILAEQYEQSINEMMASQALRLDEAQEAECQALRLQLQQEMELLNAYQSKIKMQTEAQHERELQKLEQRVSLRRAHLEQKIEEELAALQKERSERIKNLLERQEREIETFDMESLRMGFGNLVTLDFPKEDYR
T6 sequence (Q14004 whole entry, the tested form may be a part): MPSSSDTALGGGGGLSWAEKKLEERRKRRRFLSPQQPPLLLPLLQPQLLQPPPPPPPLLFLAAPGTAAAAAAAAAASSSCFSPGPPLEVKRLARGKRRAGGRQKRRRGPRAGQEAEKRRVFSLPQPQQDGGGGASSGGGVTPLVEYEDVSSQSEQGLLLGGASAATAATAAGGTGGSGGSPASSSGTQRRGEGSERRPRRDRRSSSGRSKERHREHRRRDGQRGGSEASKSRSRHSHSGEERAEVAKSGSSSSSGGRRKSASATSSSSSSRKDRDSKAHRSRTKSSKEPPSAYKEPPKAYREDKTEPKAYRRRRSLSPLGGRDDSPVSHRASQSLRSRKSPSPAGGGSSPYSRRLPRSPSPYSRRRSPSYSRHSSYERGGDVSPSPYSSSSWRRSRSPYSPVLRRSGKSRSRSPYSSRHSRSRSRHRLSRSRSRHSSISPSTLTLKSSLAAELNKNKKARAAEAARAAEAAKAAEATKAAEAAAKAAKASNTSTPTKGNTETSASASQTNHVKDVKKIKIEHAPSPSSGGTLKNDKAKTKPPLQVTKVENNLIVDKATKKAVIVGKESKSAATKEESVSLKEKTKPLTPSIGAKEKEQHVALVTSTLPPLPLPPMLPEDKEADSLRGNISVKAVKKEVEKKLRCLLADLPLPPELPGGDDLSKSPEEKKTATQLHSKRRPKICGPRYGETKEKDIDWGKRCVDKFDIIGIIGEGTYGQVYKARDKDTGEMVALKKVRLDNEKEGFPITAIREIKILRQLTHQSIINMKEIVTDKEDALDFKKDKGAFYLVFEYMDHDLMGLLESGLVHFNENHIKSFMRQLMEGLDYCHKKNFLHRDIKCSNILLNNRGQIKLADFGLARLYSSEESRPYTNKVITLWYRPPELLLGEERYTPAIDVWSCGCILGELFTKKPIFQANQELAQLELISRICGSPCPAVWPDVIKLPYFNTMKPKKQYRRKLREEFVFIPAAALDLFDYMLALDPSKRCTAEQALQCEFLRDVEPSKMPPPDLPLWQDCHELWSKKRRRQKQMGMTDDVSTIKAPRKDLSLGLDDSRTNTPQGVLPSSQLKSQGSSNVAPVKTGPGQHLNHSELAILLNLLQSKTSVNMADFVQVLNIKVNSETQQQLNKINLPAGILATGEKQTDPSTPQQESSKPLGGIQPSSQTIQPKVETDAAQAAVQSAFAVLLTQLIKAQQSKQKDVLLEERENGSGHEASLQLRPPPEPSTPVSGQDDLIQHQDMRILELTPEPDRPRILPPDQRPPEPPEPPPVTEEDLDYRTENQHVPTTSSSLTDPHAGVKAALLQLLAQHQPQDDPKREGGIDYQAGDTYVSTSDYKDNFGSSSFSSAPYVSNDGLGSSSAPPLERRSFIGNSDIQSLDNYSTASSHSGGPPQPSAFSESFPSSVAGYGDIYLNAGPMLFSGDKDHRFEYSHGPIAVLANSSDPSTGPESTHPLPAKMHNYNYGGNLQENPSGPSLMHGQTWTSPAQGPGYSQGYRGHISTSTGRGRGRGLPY
T6 sequence (O75909 whole entry partner, the tested form may be a part): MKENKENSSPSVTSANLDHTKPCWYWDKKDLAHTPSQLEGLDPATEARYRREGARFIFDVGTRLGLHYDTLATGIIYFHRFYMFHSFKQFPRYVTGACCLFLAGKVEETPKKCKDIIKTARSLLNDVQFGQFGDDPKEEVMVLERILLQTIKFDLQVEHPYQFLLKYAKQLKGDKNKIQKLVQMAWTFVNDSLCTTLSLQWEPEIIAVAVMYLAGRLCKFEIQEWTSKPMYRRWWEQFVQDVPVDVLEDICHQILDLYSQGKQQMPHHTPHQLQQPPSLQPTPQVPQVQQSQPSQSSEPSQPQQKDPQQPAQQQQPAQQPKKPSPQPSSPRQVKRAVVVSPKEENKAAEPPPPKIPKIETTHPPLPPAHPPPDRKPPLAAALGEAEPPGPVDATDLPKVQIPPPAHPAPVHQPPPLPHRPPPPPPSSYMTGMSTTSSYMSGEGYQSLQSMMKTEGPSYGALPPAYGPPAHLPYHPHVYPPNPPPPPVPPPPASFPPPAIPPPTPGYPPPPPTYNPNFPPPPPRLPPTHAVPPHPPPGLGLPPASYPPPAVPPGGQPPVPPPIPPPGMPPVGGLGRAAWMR

SMILES: C=CC(=O)Nc1ccc(C(=O)N2CC[C@@H](Nc3ncc(C#N)cn3)C2)cc1 [Compound 4, (R)-N-(4-(3-((5-cyanopyrimidin-2-yl)amino)pyrrolidine-1-carbonyl)phenyl)acrylamide]
- inhibition at 1 µM [1]: 11%
- inhibition at 1 µM [2]: 10%
- inhibition at 1 µM [3]: 7%
- inhibition at 1 µM [4]: 1%
- inhibition at 1 µM [5]: -4%
- inhibition at 1 µM [6]: 87%
- inhibition at 1 µM [7]: 5%
- inhibition at 1 µM [8]: 23%
- inhibition at 1 µM [9]: 14%
- inhibition at 1 µM [10]: 5%
- inhibition at 1 µM [11]: -2%
- inhibition at 1 µM [12]: 7%
- inhibition at 1 µM [13]: -5%
- inhibition at 1 µM [14]: 1%
- inhibition at 1 µM [15]: -6%
- inhibition at 1 µM [16]: -3%
- inhibition at 1 µM [17]: 1%
- inhibition at 1 µM [18]: 8%
- inhibition at 1 µM [19]: 2%
- inhibition at 1 µM [20]: -3%
- inhibition at 1 µM [21]: 1%
- inhibition at 1 µM [22]: 12%
- inhibition at 1 µM [23]: 18%
- inhibition at 1 µM [24]: 15%
- inhibition at 1 µM [25]: -3%
- inhibition at 1 µM [26]: 5%
- inhibition at 1 µM [27]: 9%
- inhibition at 1 µM [28]: 6%
- inhibition at 1 µM [29]: 5%
- inhibition at 1 µM [30]: 6%
- inhibition at 1 µM [31]: 2%
